Test system: Plasmodium berghei
Assay: Luciferase/luciferin-expressing antifolate-resistant parasites were used to infect a culture of HepG2 cells that were pre-incubated with compounds. Infected hepatocytes emit light due to the luciferase reaction. Assay results are presented as the percent inhibition of light emission compared to control. […]
Format: functional
Conditions: sporozoite; for IC90: read-out: LUCIFERASE INFECTION ASSAY - IC90
[1] = read-out: LUCIFERASE INFECTION ASSAY - IC50

| SMILES | IC90 [µM] | also measured |
| --- | --- | --- |
| COCCCN1C(=O)N(Cc2ccccc2)C(=O)C12CCN(Cc1cccc(-c3ccco3)c1)CC2 | > 6.77 | IC50 (PBLUC_HILL_SLOPE 3.26, PBLUC_R_SQUARED 0.648, read-out: LUCIFERASE INFECTION ASSAY - IC50): 4.58 µM |
| O=C(OCc1cn2cc(Cl)ccc2n1)c1cc([N+](=O)[O-])ccc1N1CCCC1 | 1.23 | IC50 (HEPG2TOX_HILL_SLOPE 1.77, HEPG2TOX_R_SQUARED 0.925, PBLUC_HILL_SLOPE 9.51, PBLUC_R_SQUARED 0.622, read-out: LUCIFERASE INFECTION ASSAY - IC50): 0.976 µM |
| CCN(CC)S(=O)(=O)c1ccc2nnc(Sc3nc(C)nc4sc5c(c34)CCCC5)n2c1 | > 10 | IC50 [1]: > 10 µM |
| O=C(COc1ccc2[nH]c3ccccc3c(=O)c2c1)N1CCN(c2ccc(F)cc2)CC1 | 7.49 | IC50 (PBLUC_HILL_SLOPE 2.14, PBLUC_R_SQUARED 0.725, read-out: LUCIFERASE INFECTION ASSAY - IC50): 2.68 µM |
| O=C(Nc1nc2ccc(Oc3ccccc3)cc2s1)C1=COCCO1 | > 10 | IC50 (PBLUC_HILL_SLOPE 0.789, PBLUC_R_SQUARED 0.599, read-out: LUCIFERASE INFECTION ASSAY - IC50): 5.28 µM |
| O=C(NC1CC1)c1ccc(CN(C2CC2)S(=O)(=O)c2ccccc2F)cc1 | 1.51 | IC50 [1]: 1.29 µM |
| CC(C)(C)c1cc(NC(=O)Cn2cnc3scc(-c4ccccc4)c3c2=O)on1 | > 10 | IC50 (HEPG2TOX_HILL_SLOPE 6.06, HEPG2TOX_R_SQUARED 0.374, PBLUC_HILL_SLOPE 1.95, PBLUC_R_SQUARED 0.0898, read-out: LUCIFERASE INFECTION ASSAY - IC50): > 10 µM |
| CCOC(=O)c1c(C)[nH]c(C(=O)C(C)Sc2nnc(-c3ccccc3)c(-c3ccccc3)n2)c1C (stereo not given) | > 10 | IC50 [1]: > 10 µM |
| O=[N+]([O-])c1ccccc1N1CCN(Cc2nc3ccccc3s2)CC1 | > 10 | IC50 [1]: > 10 µM |
| CCn1nc(C(=O)NCc2ccc(OC)cc2)c2c1CCN(C(=O)C1Cc3ccccc3O1)C2 (stereo not given) | 6.24 | IC50 (HEPG2TOX_HILL_SLOPE 2.42, HEPG2TOX_R_SQUARED 0.906, PBLUC_HILL_SLOPE 2.97, PBLUC_R_SQUARED 0.096, read-out: LUCIFERASE INFECTION ASSAY - IC50): 2.98 µM |
| Fc1cccc(-c2nccc3n[nH]c(-c4cccc(OC(F)(F)F)c4)c23)c1 | > 10 | IC50 (PBLUC_HILL_SLOPE 1.45, PBLUC_R_SQUARED 0.246, read-out: LUCIFERASE INFECTION ASSAY - IC50): 5.34 µM |
| CC(=N)C(C#N)c1csc(NC(=O)c2cc(-c3ccccc3)nc3c2cnn3C(C)C)n1 (stereo not given) | 9.99 | IC50 [1]: 6.35 µM |
| COc1cc(-c2cc(-c3cc4ccccc4s3)cnc2N)cc(OC)c1OC | > 8.41 | IC50 (HEPG2TOX_HILL_SLOPE 0.717, HEPG2TOX_R_SQUARED 0.312, PBLUC_HILL_SLOPE 43.5, PBLUC_R_SQUARED 0.0859, read-out: LUCIFERASE INFECTION ASSAY - IC50): 8.37 µM |
| COc1ccc(OC)c(CCNc2nc3cnc(-c4cc(OC)c(OC)c(OC)c4)cc3n2C)c1 | > 10 | IC50 (PBLUC_HILL_SLOPE 3.05, PBLUC_R_SQUARED 0.174, read-out: LUCIFERASE INFECTION ASSAY - IC50): 7.61 µM |
| Fc1ccc(C(Nc2ncnc3ccsc23)c2cccs2)cc1 (stereo not given) | 6.3 | IC50 (HEPG2TOX_HILL_SLOPE 16.1, HEPG2TOX_R_SQUARED 0.824, PBLUC_HILL_SLOPE 385, PBLUC_R_SQUARED 0.0246, read-out: LUCIFERASE INFECTION ASSAY - IC50): 6.26 µM |
| CC(Oc1ccc(C(=O)c2ccc(F)cc2)cc1)C(=O)NC1(C#N)CCCCC1 (stereo not given) | > 10 | IC50 (HEPG2TOX_HILL_SLOPE 6.49, HEPG2TOX_R_SQUARED 0.548, PBLUC_HILL_SLOPE 2.92, PBLUC_R_SQUARED 0.383, read-out: LUCIFERASE INFECTION ASSAY - IC50): 7.61 µM |
| O=S(=O)(Nc1cccc(C(F)(F)F)c1)c1c(F)c(Br)cc(F)c1Br | > 6.67 | IC50 (PBLUC_HILL_SLOPE 1.15, PBLUC_R_SQUARED 0.311, read-out: LUCIFERASE INFECTION ASSAY - IC50): > 6.67 µM |
| COC1CC(O[C@H]2CC[C@]3(C)C4CC[C@]5(C)[C@@H](C6=CC(=O)OC6)CC[C@]5(O)[C@@H]4CC[C@]3(O)C2)OC(C)C1O (stereo not given in full) | 0.177 | IC50 (HEPG2TOX_HILL_SLOPE 1.6, HEPG2TOX_R_SQUARED 0.898, PBLUC_HILL_SLOPE 2.36, PBLUC_R_SQUARED 0.616, read-out: LUCIFERASE INFECTION ASSAY - IC50): 0.0698 µM |
| O=C(CNc1ccc(C(F)(F)F)cc1Cl)Nc1cccc(C(=O)NC2CC2)c1 | 7.38 | IC50 (PBLUC_HILL_SLOPE 3.94, PBLUC_R_SQUARED 0.579, read-out: LUCIFERASE INFECTION ASSAY - IC50): 4.23 µM |
| CN(C)C(=O)CC(NC(=O)Nc1ccc(F)cc1F)c1ccccc1 (stereo not given) | > 10 | IC50 [1]: > 10 µM |

| SMILES | IC90 [µM] | also measured |
| --- | --- | --- |
| CCOc1ccc(S(=O)(=O)Nc2cc3c4c(oc3c3ccccc23)CC(C)(C)CC4=O)cc1 | 6.15 | IC50 (HEPG2TOX_HILL_SLOPE 4.2, HEPG2TOX_R_SQUARED 0.972, PBLUC_HILL_SLOPE 5.12, PBLUC_R_SQUARED 0.622, read-out: LUCIFERASE INFECTION ASSAY - IC50): 4.01 µM |
| CC(=O)Nc1nc(C(=O)Nc2ccc(Nc3ccccc3)cc2)cs1 | > 10 | IC50 (HEPG2TOX_HILL_SLOPE 2.43, HEPG2TOX_R_SQUARED 0.519, PBLUC_HILL_SLOPE 2.7, PBLUC_R_SQUARED 0.347, read-out: LUCIFERASE INFECTION ASSAY - IC50): 4.68 µM |
| CC1c2ccsc2CCN1C(=S)NC(=O)c1ccc(C(C)(C)C)cc1 (stereo not given) | > 8.86 | IC50 (HEPG2TOX_HILL_SLOPE 0.0482, HEPG2TOX_R_SQUARED 0.0333, read-out: LUCIFERASE INFECTION ASSAY - IC50): > 8.86 µM |
| CNC(=O)N(C1=NCC(C)(C)S1)c1cccc(C(F)(F)F)c1 | > 9.96 | IC50 (HEPG2TOX_HILL_SLOPE 2.33, HEPG2TOX_R_SQUARED 0.841, PBLUC_HILL_SLOPE 2.51, PBLUC_R_SQUARED 0.0629, read-out: LUCIFERASE INFECTION ASSAY - IC50): 7.95 µM |
| Cc1nnsc1C(=O)Nc1nc(C(F)(F)F)c(-c2ccccc2)s1 | > 8.91 | IC50 (HEPG2TOX_HILL_SLOPE 1.46, HEPG2TOX_R_SQUARED 0.922, PBLUC_HILL_SLOPE 11.5, PBLUC_R_SQUARED 0.414, read-out: LUCIFERASE INFECTION ASSAY - IC50): 8.03 µM |
| Cc1ccc(N2C(=O)/C(=C\c3ccc4c(c3)OCO4)N=C2SCC(=O)NCC2CCCO2)cc1 (stereo not given) | > 10 | IC50 [1]: > 10 µM |
| Cc1ccc(C(C)C)c(Oc2nnnn2-c2ccccc2)c1 | 4.38 | IC50 (HEPG2TOX_HILL_SLOPE 3.94, HEPG2TOX_R_SQUARED 0.78, PBLUC_HILL_SLOPE 282, PBLUC_R_SQUARED 0.16, read-out: LUCIFERASE INFECTION ASSAY - IC50): 4.34 µM |
| CCOc1ccc(-n2c(C)cc(/C=N/Nc3nc(C)cc(O)n3)c2C)cc1 | > 10 | IC50 (PBLUC_HILL_SLOPE 14.4, PBLUC_R_SQUARED 0.318, read-out: LUCIFERASE INFECTION ASSAY - IC50): 9.96 µM |
| O=C1C(=O)N(CCN2CCOCC2)c2ccc(Cl)cc21 | 9.44 | IC50 (PBLUC_HILL_SLOPE 1.82, PBLUC_R_SQUARED 0.307, read-out: LUCIFERASE INFECTION ASSAY - IC50): 2.83 µM |
| O=C(COCc1nc2ccccc2s1)NCc1ccc(Cn2cccn2)cc1 | > 10 | IC50 [1]: > 10 µM |
| CN1c2ccccc2C(C)(C)C12C=Cc1c(ccc3oc4c(c13)CCCC4)O2 (stereo not given) | > 10 | IC50 (PBLUC_HILL_SLOPE 2.26, PBLUC_R_SQUARED 0.401, read-out: LUCIFERASE INFECTION ASSAY - IC50): 8.28 µM |
| CCC(CO)Nc1ccc2ncc(-c3ccc(OC)nc3)n2n1 (stereo not given) | 5.43 | IC50 (PBLUC_HILL_SLOPE 2.84, PBLUC_R_SQUARED 0.538, read-out: LUCIFERASE INFECTION ASSAY - IC50): 2.51 µM |
| CN(/N=C/c1cc(Cl)cc(Cl)c1O)C(=S)NC(C)(C)C | > 9.87 | IC50 [1]: > 9.87 µM |
| Cc1ccc(NC(=O)Nc2cnn(-c3ccc([N+](=O)[O-])cc3)c2C(F)(F)F)cc1F | 3.46 | IC50 (FFLUC_HILL_SLOPE 2.79, FFLUC_R_SQUARED 0.315, HEPG2TOX_HILL_SLOPE 0.0932, HEPG2TOX_R_SQUARED 0.068, PBLUC_HILL_SLOPE 11.4, PBLUC_R_SQUARED 0.0999, read-out: LUCIFERASE INFECTION ASSAY - IC50): 2.85 µM |
| COCCCNC(=S)N/N=C/c1ccc(Cl)c(Cl)c1 | > 10.3 | IC50 [1]: > 10.3 µM |
| COc1cc(OC)cc(-c2cnc3cnc(-c4cccc(N)c4)cn23)c1 | > 9.53 | IC50 (FFLUC_HILL_SLOPE 17.8, FFLUC_R_SQUARED 0.255, PBLUC_HILL_SLOPE 12.5, PBLUC_R_SQUARED 0.443, read-out: LUCIFERASE INFECTION ASSAY - IC50): 9.41 µM |
| CCc1nnc(NC(=O)/C=C/c2cc(Cl)c(OC(C)C)c(OC)c2)s1 | > 10 | IC50 (HEPG2TOX_HILL_SLOPE 1.31, HEPG2TOX_R_SQUARED 0.955, PBLUC_HILL_SLOPE 2.51, PBLUC_R_SQUARED 0.0872, read-out: LUCIFERASE INFECTION ASSAY - IC50): 6.82 µM |
| CCc1nnc(S)n1/N=C/c1c(C)nn(-c2ccccc2)c1Cl | 0.704 | IC50 (HEPG2TOX_HILL_SLOPE 1.03, HEPG2TOX_R_SQUARED 0.933, PBLUC_HILL_SLOPE 1.45, PBLUC_R_SQUARED 0.745, read-out: LUCIFERASE INFECTION ASSAY - IC50): 0.155 µM |
| Cc1ccc2c(c1)C1CN(C)CCC1N2C(=O)c1sc2ccccc2c1Cl (stereo not given) | 6.62 | IC50 (PBLUC_HILL_SLOPE 14.0, 2.64, PBLUC_R_SQUARED 0.410, 0.165, read-out: LUCIFERASE INFECTION ASSAY - IC50): 3.64 µM |
| CC/C=C1/CC(=O)N(c2ccccc2)C1=O | 14.2 | IC50 (PBLUC_HILL_SLOPE 3.2, PBLUC_R_SQUARED 0.213, read-out: LUCIFERASE INFECTION ASSAY - IC50): 7.15 µM |

Reference: ChEMBL document CHEMBL4483862, “Open-source discovery of chemical leads for next-generation chemoprotective antimalarials” (2018)
